In patent US12502369B2, “Methods of cancer treatment” (K-GEN, INC., priority 2015, dated 2025):
Read-outs that look alike come from different tables or passages of the source.

Assays:
Capan-1 = experiment: Proliferation assay (CellTiter Glo), Capan-1; type: cell-based; conditions: for Top inhibition %: 96 hours
Procedure: (§1) Briefly, cells at a density of 1,000-10,000 cells/well were seeded in 96-well plates and incubated at 37′C for 24 hours. A series of 9 different concentrations of compound stocks (500×) were created by 3-fold serial dilution in DMSO. These compounds were further diluted in culture media and then added to cells so that the final DMSO concentration was 0.2%. After 96 hours of incubation, 50 μL of CellTiter Glo reagent (Promega) was added to each well and luminescence was measured after 10 minutes using EnVision (PerkinElmer). […] The dose range for most compounds was 4.6 nM-30 μM. The dose ranges for some compounds were adjusted downward to 0.46 nM-3 μM or 0.08 nM-0.5 μM or 0.03 nM-0.2 μM. Luminescence from cells treated with […] alone was set as Max and % of inhibition was calculated as follows: Inhibition %=(Max-Sample value)/Max*100. Data was analyzed using XL-fit software (ID Business Solutions Ltd.) and EC50, relative EC50, and % of top inhibition were calculated. The results are shown in Tables 3-6 for pancreatic cancer, lung cancer, colon/gastric cancer, and leukemia cell lines.

LS180 = experiment: Proliferation assay (CellTiter Glo), LS180; type: cell-based; conditions: for Top inhibition %: 96 hours; for EC50: absolute EC50, 96 hours, read-out: Ab EC50
Procedure: as §1

THP1 = experiment: Proliferation assay (CellTiter Glo), THP1; type: cell-based; conditions: for Top inhibition %: 96 hours
Procedure: as §1

[1] = tested on: leukemia inhibitory factor (LIF); experiment: Western blot of LIF in A549 cells; type: cell-based; conditions: for protein levels of the leukemia inhibitory factor (LIF): Western blot, concentrations of Table 8, 48 hours
Procedure: Cancer cells (2-8 million cells) were seeded in 10 cm dishes and grown overnight. For A549 lung cancer cell line, about 3 million cells were seeded. Cells were then treated with different drugs at indicated concentrations (see Table 8) for a period of time up to 48 hours. Cells were lysed in 0.3-0.5 mL of RIPA buffer (Sigma) supplemented with protease inhibitors (Roche) and phosphatase inhibitors (Sigma). Lysates were assayed for protein concentration using BCA kit (Pierce). Normalized amount of lysates (20-30 μg protein/lane) were run on 4-12% NuPage gel (Life Technologies) and the proteins were transferred to the PVDF or nitrocellulose membrane using iBlot® Transfer Stack (Life Technologies). The membranes were probed with primary antibodies shown in Table 8 at 4° C. overnight after blocking with 1×TBST containing 5% non-fat milk. Antibodies from other vendors could also be used in Western blot analysis. After washing 5 times with 1×TBS containing 0.1% Tween20, the membranes were probed with 2nd antibodies Anti-mouse IgG Dylight 800 conjugate or Anti-rabbit IgG DyLight 680 conjugate (1:10000; Cell signaling or similar IR 2nd antibodies from different vendors) at room temperature for one hour. After washing 5 times, the membranes were scanned using Odyssey® Imaging System (Licor Biosciences).

A549 cells = experiment: Soft agar colony formation assay; type: cell-based; conditions: 7-10 days, 9-point dilution series
Procedure: To prepare the base agar layer (0.6%), melted 1.2% agar solution was mixed 1:1 (v/v) with 2×DMEM/20% FBS medium in a tube by inverting several times and 50 μL of the mixture was immediately transferred to a well in a 96-well flat-bottom microplate. The plate was placed at 4° C. for 30 minutes to allow the base agar layer to solidify. Then, the cell agar layer (agar 0.4%) was prepared by transferring 75 μL of the cell and agar mixture containing 1:1:1 (v/v/v) of 1.2% agar solution, 2×DMEM/20% FBS and cell suspension (0.4-4×10^5/mL) to each well of the plates so that each well contained 1000-10000 cells per well. The plates were placed at 4° C. for 15 minutes and then 75 μL of media were added to each well. After incubating the plates overnight in a CO2 incubator, 50 μL of media with or without 5× final concentrations of compounds were added to each well. Each compound was tested in 9-point 3-fold dilution series. The plates were incubated for 7-10 days at 37° C. At the end of incubation period, 28 μL of Calcein AM solution (5 μM) was added to the center of each well. The plates were incubated at 37° C. for 45 minutes before scanning on Acumen (TTP Labtech). Each compound was tested in triplicates. Data was analyzed and compound EC50s were calculated using GraphPad Prism 5.

[2] = tested on: PKC substrates in A549 cells; experiment: Global PKC activation (phosphorylated PKC substrates), Western blot, A549; type: cell-based; conditions: 30 minutes, Phospho-PKC substrate Motif MultiMab
Procedure: (§2) A549 lung cancer cells (˜3 million cells) were seeded in 10 cm tissue culture dishes and grown overnight. Cells were then treated with different drugs at indicated concentrations (see FIG. 9A for global activation of PKC and FIG. 10 for activation of PKC isoforms) for 30 minutes. Panc2.13 pancreatic cells (˜5 million) were seeded and treated as in FIG. 9B for global activation of PKC. Cell lysate preparation, protein quantitation, SDS-PAGE, and Western blotting procedures are described in Example 2. Primary antibodies used in this Example and later Examples of this application are shown in Table A. Western blot membranes were scanned using Odyssey® Imaging System (Licor Biosciences) if secondary antibodies Anti-mouse IgG Dylight 800 conjugate or Anti-rabbit IgG DyLight 680 conjugate (1:10000)(Cell signaling or similar IR 2nd antibodies from different vendors) were used. Alternatively, Imagequant LAS4000 (GE) was used to scan membranes if secondary antibodies Anti-mouse IgG HRP conjugate or Anti-rabbit IgG HRP conjugate (dilutions from 1:2000-1:10000) were used.

[3] = tested on: PKC substrates in Panc2.13 cells; experiment: Global PKC activation (phosphorylated PKC substrates), Western blot, Panc2.13; type: cell-based; conditions: Phospho-(Ser) PKC Substrate Antibody
Procedure: as §2

[4] = tested on: PKC isoforms in A549 cells; experiment: Activation of PKC isoforms, Western blot, A549; type: cell-based; conditions: 30 minutes; for P-PKC (pan)(βII Ser660) and P-PKCα/β (Thr638/641): high levels already in DMSO treated cells
Procedure: as §2

[5] = tested on: PKCμ and PKCδ in HFL-1 cells; experiment: Activation of PKC isoforms in non-cancerous lung fibroblast HFL-1 cells; type: cell-based, human; conditions: 30 minutes
[6] = tested on: PKCδ, PKCμ, c-Raf in MH22A; experiment: Activation of PKC isoforms in hepatoma cell line MH22A, Western blot; type: cell-based, mouse
[7] = absolute EC50, 96 hours, read-out: Ab EC50
[8] = relative EC50, 96 hours, read-out: Re EC50

SMILES | Top inhibition % (Capan-1) [%] | Top inhibition % (LS180) [%] | Top inhibition % (THP1) [%] | protein levels of the leukemia inhibitory factor (LIF) [1] | number of colonies formed in soft agar (A549 cells) | phosphorylation of PKC substrates (global activation of PKC) [2] | phosphorylation of PKC substrates (global activation of PKC) [3] | P-PKCδ (Thr505) and P-PKCδ/θ (Ser643/676) [4] | P-PKC (pan)(βII Ser660) and P-PKCα/β (Thr638/641) [4] | phosphorylation of PKCμ at Ser916 and Ser744/748, and PKCδ at Thr505 and Tyr311 [5] | other results
CC(=O)O[C@@]12C[C@@H](C)[C@]3(O)C4C=C(C)C(=O)[C@@]4(O)CC(CO)=C[C@H]3[C@@H]1C2(C)C (stereo partly shown) [Compound K-101A, Prostratin] | 37.1 | 4.4 | 51.8 | dose-dependent reduction | reduced the number of colonies | induced dose-dependent phosphorylation | induced dose-dependent phosphorylation | dose-dependent increases | no further increases | resulted in phosphorylation | EC50 (Capan-1; Homo sapiens, absolute EC50, 96 hours, read-out: Ab EC50): > 30000 nM; EC50 (Capan-1; Homo sapiens, relative EC50, 96 hours, read-out: Re EC50): 310 nM; EC50 (LS180; Homo sapiens): > 30000 nM; EC50 (THP1; Homo sapiens, THP-1, absolute EC50, 96 hours, read-out: Ab EC50): 870 nM; EC50 (THP1; Homo sapiens, THP-1, relative EC50, 96 hours, read-out: Re EC50): 300 nM; LIF protein level ([1]; 0.5 uM of K-101A): lowered; phosphorylation of PKCδ at Thr505, PKCμ at Ser744/748, PKCμ at Ser916, c-Raf at Ser338 [6]: did not induce further phosphorylation
CC(=O)OCC1=C[C@H]2[C@@H]3C(C)(C)[C@]3(OC(C)=O)C[C@@H](C)[C@]2(O)C2C=C(C)C(=O)[C@@]2(O)C1 (stereo partly shown) [Compound K-101E] | 44.6 | 1.3 | 51.6 | did not affect | reduced the number of colonies | nearly no effect | nearly no effect | no effects | – | – | EC50 (Capan-1; [7]): > 30000 nM; EC50 (Capan-1; [8]): 830 nM; EC50 (LS180): > 30000 nM; EC50 (THP1; [7]): 3600 nM; EC50 (THP1; [8]): 1020 nM
C/C=C(/C)C(=O)O[C@H]1C(C)=C[C@]23C(=O)[C@@H](C=C(CO)[C@@H](O)[C@]12O)[C@H]1[C@@H](C[C@H]3C)C1(C)C [Compound K-102, Ingenol-3-angelate, reference compound] | – | – | – | – | reduced the number of colonies | induced dose-dependent phosphorylation | induced dose-dependent phosphorylation | dose-dependent increases | no further increases | resulted in phosphorylation | phosphorylation of PKCδ at Thr505, PKCμ at Ser744/748, PKCμ at Ser916, c-Raf at Ser338 ([6]; MH22A, basal levels high, K101A 1 μM, K102 0.1 μM): did not induce further phosphorylation
